Tests used:
[1] = molecular target: phosphor-Axl (Homo sapiens (Human), UniProt P30530); test: TAM Enzymatic Assay (HTRF), phosphor-Axl; format: biochemical; conditions: 5.1 nM autophosphorylated Axl, 60 min; read-out: Phos-Axl IC50
[2] = molecular target: Tyro3 (Homo sapiens (Human), UniProt Q06418); test: TAM Enzymatic Assay (HTRF), Tyro3; format: biochemical; conditions: 0.366 nM Tyro3, 60 min
Description: The kinase assay buffer contained 50 mM HEPES, pH7.5, 10 mM MgCl2, 1 mM EGTA, 0.01% NP-40 and 2 mM DTT. 0.1 ul test compounds dissolved in DMSO were transferred from compound plates to white 384-well assay plates (Greiner [sequence] plates). […] 4 ul enzyme solution (or assay buffer for the enzyme blank) was added to the appropriate wells in each plate, and then 4 ul/well substrate solution was added to initiate the reaction. The plate was protected from light and incubated at room temperature for 60 min. […] The plate was incubated for 1 h at room temperature, and HTRF (homogenous time resolved fluorescence) signal was measured on a PHERAstar FS plate reader (BMG labtech). Percentage of inhibition was calculated for each concentration and IC50 value was generated from curve fitting with GraphPad Prism software.

[3] = molecular target: c-Mer (Homo sapiens (Human), UniProt Q12866); test: TAM Enzymatic Assay (HTRF), c-Mer; format: biochemical; conditions: 0.0625 nM c-Mer, ATP-containing substrate solution, 60 min
[4] = molecular target: PI3Kδ (Homo sapiens (Human), UniProt O00329); conditions: cited from earlier work
PI3Kδ, sequence (O00329 whole entry, species assumed): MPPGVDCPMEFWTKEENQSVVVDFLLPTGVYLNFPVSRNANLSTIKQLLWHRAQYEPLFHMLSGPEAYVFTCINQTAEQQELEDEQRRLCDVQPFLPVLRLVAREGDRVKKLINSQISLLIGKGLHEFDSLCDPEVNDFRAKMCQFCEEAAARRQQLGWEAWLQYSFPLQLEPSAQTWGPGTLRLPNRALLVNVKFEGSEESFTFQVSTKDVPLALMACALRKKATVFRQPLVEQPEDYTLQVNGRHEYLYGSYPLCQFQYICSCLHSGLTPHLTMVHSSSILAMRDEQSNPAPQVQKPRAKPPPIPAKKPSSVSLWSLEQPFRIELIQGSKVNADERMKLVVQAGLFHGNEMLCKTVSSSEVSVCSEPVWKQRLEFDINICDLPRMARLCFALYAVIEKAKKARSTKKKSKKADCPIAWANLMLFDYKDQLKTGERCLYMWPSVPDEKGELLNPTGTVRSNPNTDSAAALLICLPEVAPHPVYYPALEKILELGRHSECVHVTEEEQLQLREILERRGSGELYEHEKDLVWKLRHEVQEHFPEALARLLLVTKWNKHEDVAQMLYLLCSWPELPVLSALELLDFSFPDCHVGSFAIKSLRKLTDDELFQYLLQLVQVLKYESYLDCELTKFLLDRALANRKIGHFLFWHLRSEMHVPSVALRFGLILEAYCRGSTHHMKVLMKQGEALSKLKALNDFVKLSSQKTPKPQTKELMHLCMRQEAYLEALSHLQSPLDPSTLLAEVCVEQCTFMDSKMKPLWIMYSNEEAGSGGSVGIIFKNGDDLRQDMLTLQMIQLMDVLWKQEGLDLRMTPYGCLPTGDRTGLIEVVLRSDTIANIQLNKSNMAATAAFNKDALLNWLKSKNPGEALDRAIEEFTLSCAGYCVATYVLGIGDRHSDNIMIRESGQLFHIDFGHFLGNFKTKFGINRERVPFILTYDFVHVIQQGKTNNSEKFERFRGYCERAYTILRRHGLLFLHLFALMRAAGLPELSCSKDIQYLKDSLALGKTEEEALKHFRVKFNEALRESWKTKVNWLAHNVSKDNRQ
PI3Kδ, sequence (P27986 whole entry partner, species assumed): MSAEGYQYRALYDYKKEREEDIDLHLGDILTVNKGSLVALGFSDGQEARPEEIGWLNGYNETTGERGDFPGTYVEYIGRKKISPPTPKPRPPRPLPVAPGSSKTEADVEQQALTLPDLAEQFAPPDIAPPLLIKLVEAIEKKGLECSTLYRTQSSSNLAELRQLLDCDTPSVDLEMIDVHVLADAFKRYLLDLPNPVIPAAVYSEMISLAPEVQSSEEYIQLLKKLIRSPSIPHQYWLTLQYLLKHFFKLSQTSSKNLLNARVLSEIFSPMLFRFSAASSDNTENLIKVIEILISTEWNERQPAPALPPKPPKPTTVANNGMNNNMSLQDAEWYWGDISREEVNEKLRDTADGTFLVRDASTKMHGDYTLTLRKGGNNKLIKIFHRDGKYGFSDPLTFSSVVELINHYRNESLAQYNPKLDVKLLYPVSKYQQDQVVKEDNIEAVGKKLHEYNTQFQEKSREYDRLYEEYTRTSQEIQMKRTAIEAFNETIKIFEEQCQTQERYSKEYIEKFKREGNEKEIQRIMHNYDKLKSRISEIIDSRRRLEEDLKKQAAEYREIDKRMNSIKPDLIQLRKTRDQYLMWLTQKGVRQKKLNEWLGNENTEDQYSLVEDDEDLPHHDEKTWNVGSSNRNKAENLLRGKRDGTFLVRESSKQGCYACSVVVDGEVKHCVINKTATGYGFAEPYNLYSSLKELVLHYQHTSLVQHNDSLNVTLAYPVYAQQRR

Tyro3, sequence (Q06418 41-890): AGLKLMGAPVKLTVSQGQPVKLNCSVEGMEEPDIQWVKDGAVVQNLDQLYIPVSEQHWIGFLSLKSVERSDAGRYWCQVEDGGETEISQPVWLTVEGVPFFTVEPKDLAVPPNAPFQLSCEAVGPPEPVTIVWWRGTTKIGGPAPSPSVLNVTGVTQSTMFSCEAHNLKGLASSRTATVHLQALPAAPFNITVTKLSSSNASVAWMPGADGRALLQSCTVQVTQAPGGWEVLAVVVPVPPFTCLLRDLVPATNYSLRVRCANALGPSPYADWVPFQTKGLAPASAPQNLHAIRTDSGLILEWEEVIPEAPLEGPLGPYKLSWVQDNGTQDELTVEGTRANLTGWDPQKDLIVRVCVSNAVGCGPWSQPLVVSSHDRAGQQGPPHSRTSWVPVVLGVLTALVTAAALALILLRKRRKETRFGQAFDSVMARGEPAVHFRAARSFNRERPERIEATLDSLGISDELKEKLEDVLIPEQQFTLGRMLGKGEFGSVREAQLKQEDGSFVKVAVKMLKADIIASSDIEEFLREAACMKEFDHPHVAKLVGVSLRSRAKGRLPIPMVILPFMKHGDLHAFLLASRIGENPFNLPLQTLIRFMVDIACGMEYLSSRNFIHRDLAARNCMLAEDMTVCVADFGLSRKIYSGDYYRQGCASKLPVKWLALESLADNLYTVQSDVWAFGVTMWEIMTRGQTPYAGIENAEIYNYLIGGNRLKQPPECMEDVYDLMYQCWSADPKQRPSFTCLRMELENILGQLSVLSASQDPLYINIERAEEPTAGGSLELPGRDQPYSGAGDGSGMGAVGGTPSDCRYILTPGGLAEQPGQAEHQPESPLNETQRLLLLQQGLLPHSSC
phosphor-Axl, sequence (P30530 26-894): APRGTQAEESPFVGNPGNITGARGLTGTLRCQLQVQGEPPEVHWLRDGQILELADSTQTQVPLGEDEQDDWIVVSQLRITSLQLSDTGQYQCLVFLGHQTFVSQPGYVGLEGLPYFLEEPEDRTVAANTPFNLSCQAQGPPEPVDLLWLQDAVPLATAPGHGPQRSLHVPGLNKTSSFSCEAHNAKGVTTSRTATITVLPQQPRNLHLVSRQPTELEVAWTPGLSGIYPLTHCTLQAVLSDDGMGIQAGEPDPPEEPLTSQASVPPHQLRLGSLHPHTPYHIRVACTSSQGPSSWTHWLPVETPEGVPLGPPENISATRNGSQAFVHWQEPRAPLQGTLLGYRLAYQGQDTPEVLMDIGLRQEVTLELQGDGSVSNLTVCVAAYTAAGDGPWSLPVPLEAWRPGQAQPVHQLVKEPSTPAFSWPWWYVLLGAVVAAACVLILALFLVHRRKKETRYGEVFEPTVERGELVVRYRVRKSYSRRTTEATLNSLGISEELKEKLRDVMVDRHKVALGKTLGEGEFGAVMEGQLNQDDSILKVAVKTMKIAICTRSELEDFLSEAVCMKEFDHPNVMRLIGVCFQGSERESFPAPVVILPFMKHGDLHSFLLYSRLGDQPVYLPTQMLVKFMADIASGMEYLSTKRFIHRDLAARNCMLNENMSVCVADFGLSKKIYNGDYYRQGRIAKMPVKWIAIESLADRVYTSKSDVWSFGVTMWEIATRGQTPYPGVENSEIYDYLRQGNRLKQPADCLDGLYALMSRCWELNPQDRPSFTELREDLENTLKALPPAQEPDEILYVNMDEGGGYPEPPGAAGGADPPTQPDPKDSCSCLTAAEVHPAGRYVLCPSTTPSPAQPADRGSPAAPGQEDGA
c-Mer, sequence (Q12866 21-999): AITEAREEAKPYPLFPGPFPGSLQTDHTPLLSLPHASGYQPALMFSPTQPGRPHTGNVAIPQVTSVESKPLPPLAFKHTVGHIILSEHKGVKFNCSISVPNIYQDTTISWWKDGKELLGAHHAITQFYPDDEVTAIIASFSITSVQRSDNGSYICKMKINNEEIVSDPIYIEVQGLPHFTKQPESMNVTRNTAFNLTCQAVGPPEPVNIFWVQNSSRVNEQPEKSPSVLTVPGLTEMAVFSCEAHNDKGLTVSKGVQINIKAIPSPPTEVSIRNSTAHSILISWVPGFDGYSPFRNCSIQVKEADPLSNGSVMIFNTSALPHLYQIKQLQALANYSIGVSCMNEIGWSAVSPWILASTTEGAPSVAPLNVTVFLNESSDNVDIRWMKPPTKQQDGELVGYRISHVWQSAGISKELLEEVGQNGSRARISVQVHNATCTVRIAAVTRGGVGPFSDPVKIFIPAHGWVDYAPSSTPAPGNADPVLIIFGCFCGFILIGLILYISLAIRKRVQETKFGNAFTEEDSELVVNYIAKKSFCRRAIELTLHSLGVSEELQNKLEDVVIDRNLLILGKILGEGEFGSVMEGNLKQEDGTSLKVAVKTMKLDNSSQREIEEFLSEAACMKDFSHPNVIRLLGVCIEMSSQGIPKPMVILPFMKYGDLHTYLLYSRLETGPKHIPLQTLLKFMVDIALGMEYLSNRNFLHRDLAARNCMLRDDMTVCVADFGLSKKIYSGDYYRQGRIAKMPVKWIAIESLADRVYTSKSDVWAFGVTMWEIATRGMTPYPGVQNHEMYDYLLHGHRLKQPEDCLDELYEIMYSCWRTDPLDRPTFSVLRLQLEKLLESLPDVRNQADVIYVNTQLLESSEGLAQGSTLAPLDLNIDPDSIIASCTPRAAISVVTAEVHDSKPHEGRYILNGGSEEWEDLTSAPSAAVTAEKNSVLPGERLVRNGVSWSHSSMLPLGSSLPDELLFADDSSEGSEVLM

| Structure (SMILES) | IC50 [1] [nM] | IC50 [2] [nM] | IC50 [3] [nM] | IC50 [4] [nM] |
| --- | --- | --- | --- | --- |
| CCCCNc1ncc2c(-c3ccc(CN4CCN(C)CC4)cc3)nc([C@H]3CC[C@H](O)CC3)n2n1 [1 (1st peak, trans-), trans-4-(2-(Butylamino)-5-{4-[(4-methylpiperazin-1-yl)methyl]phenyl}imidazo[5,1-f][1,2,4]triazin-7-yl)cyclohexanol] | ≤ 100 | 100 to 500 | ≤ 100 | – |
| COc1c(C(C)n2nc(C)c3c(N)ncnc32)cc(Cl)c(C#N)c1C1CN(C[C@H](C)O)C1 (stereo partly drawn) [Compound 29, 4-[1-(4-amino-3-methyl-1H-pyrazolo[3,4-d]pyrimidin-1-yl)ethyl]-6-chloro-2-{1-[(2S)-2-hydroxypropyl]azetidin-3-yl}-3-methoxybenzonitrile] | – | – | – | < 50 |
| COc1c(C(C)n2nc(C)c3c(N)ncnc32)cc(Cl)c(C#N)c1C1CN(CCO)C1 (centres unmarked) [Compound 30, 4-[1-(4-amino-3-methyl-1H-pyrazolo[3,4-d]pyrimidin-1-yl)ethyl]-6-chloro-2-[1-(2-hydroxyethyl)azetidin-3-yl]-3-methoxybenzonitrile] | – | – | – | < 50 |

Further lines, with some results ahead:

| IC50 [1] [nM] | IC50 [2] [nM] | IC50 [3] [nM] | Structure (SMILES) | IC50 [4] [nM] |
| --- | --- | --- | --- | --- |
| 100 to 500 | 500 to 1000 | – | CCCCNc1ncc2c(-c3ccc(N4CCOCC4)c(F)c3)nc(C3CCC(O)CC3)n2n1 (single isomer, unassigned) [7 (1st peak), 4-[2-(Butylamino)-5-(3-fluoro-4-morpholin-4-ylphenyl)imidazo[5,1-f][1,2,4]triazin-7-yl]cyclohexanol] | – |
| > 1000 | – | – | CCCCNc1ncc2c(-c3ccc(N4CCOCC4)c(F)c3)nc(C3CCC(O)CC3)n2n1 (single isomer, unassigned) [7 (2nd peak), 4-[2-(Butylamino)-5-(3-fluoro-4-morpholin-4-ylphenyl)imidazo[5,1-f][1,2,4]triazin-7-yl]cyclohexanol] | – |
| 100 to 500 | 100 to 500 | ≤ 100 | CCCCNc1ncc2c(-c3ccc(CN4CCOCC4)cc3)nc([C@H]3CC[C@@H](O)CC3)n2n1 [2 (2nd peak, cis-), cis-4-{2-(Butylamino)-5-[4-(morpholin-4-ylmethyl)phenyl]imidazo[5,1-f][1,2,4]triazin-7-yl}cyclohexanol] | – |
